Values belong to the molecule of their own block, whether it stands above or below them.
Assay: Antagonist activity at human CCR2 in PBMCs assessed as inhibition of chemotaxis

SMILES: CSc1ccc(C(=O)N[C@@H]2CCCC[C@@H]2NC(=O)CNC(=O)c2cccc(C(F)(F)F)c2)cc1
- IC50: 1200 nM

SMILES: O=C(CNC(=O)c1cccc(C(F)(F)F)c1)N[C@H]1CCCC[C@H]1NC(=O)c1ccc(I)cc1
- IC50: 160 nM

SMILES: NS(=O)(=O)c1ccc(C(=O)N[C@@H]2CCCC[C@@H]2NC(=O)CNC(=O)c2cccc(C(F)(F)F)c2)cc1
- IC50: 130 nM

Molecules with a lower IC50, results first:

- IC50: 63 nM
SMILES: Nc1ccc(C(F)(F)F)cc1C(=O)NCC(=O)N[C@H]1CCCC[C@H]1NC(=O)c1ccc(S(N)(=O)=O)cc1

- IC50: 0.5 nM
SMILES: NS(=O)(=O)c1ccc(C(=O)N[C@@H]2CCCC[C@@H]2NC(=O)CNC(=O)c2cc(C(F)(F)F)ccc2NC(=O)C2CCCCC2)cc1

From BindingDB's records for doi:10.1021/jm701488f (2008)
